Literature values, collected in article PMC3853759 (International Journal of Pharmaceutical Investigation, 2013).

## [Zn] [Zn, Zinc]
rats
  oral Zn dose producing acute toxicity: 237 to 623 mg/kg
mice
  oral Zn dose producing acute toxicity: 86 to 605 mg/kg
